The source of these data is ChEMBL document CHEMBL4251716, “Miuramides A and B, Trisoxazole Macrolides from a Mycale sp. Marine Sponge That Induce a Protrusion Phenotype in Cultured Mammalian Cells” (J Nat Prod, 2018).

Structures are written as SMILES. The source made the active and inactive calls. The calls are words filed in the database; no cut-off is given here.

Assay type in all cases: functional, cell-based
Assay [1] concerns 3Y1 cell line. As to the kind of experiment: Induction of morphological changes in rat 3Y1 cells assessed as protrusions in cell membrane at 2.7 uM measured after 5 mins to 48 hrs by IncuCyte live cell imaging method.
The subject of assay [2] is 3Y1 cell line. Description: Induction of morphological changes in rat 3Y1 cells assessed as protrusions in cell membrane at 41 uM measured after 5 mins to 48 hrs by IncuCyte live cell imaging method.
Assay [3] deals with 3Y1 cell line. Description: Induction of morphological changes in rat 3Y1 cells assessed as protrusions in cell membrane at 0.05 uM measured after 5 mins to 48 hrs by IncuCyte live cell imaging method.
The test system of assay [4] is 3Y1 cell line. As to the kind of experiment: Cytotoxicity against rat 3Y1 cells after 72 hrs by MTT assay. Conditions: 3Y1, 72 h.
The subject of assay [5] is 3Y1 cell line. Description: Induction of morphological changes in rat 3Y1 cells assessed as protrusions in cell membrane at 1.9 uM measured after 5 mins to 48 hrs by IncuCyte live cell imaging method.
The test system of assay [6] is 3Y1 cell line. As to the kind of experiment: Induction of morphological changes in rat 3Y1 cells assessed as protrusions in cell membrane at 4.2 uM measured after 5 mins by IncuCyte live cell imaging method.

Consider `COC[C@@H](OC)C(=O)O[C@H](CC[C@H](C)[C@H](C[C@@H]1OC(=O)C[C@@H](O)C/C=C/C(=O)[C@H](C)[C@H](OC)c2coc(n2)-c2coc(n2)-c2coc(n2)/C=C/C[C@H](OC)[C@H]1C)OC)[C@H](C)[C@H](OC(C)=O)[C@H](C)/C=C/N(C)C=O`, for which the outcome in assay [1] was Active.

As for `C=C1[C@@H](C)[C@H]2[C@H](Cc3ccccc3)NC(=O)[C@]23OC(=O)/C=C/[C@@H](O)CCC[C@@H](C)C/C=C/[C@H]3[C@@H]1O`, the result in assay [2] was Active. In the case of `CO[C@H]1C[C@H](CC[C@H](C)[C@H](O)[C@H](C)[C@H]2OC(=O)/C(C)=C/C[C@H](O)C[C@@H]3C=CC[C@@H](C[C@H](OC)[C@@H](C)[C@@H](O)C[C@@H](O)[C@H](C)[C@@H]([C@@H](C)[C@@H](O)[C@@H](C)CC[C@H]4C[C@H](OC)C[C@H](C)O4)OC(=O)/C(C)=C/C[C@H](O)C[C@@H]4C=CC[C@@H](C[C@H](OC)[C@@H](C)[C@@H](O)C[C@@H](O)[C@@H]2C)O4)O3)O[C@@H](C)C1`, in assay [3], the outcome was Active.

The compound `CO[C@H]([C@H](C)/C=C/N(C)C=O)[C@@H](C)C(=O)CC[C@H](C)[C@H](C[C@@H]1OC(=O)C[C@@H](O)C/C=C/C(=O)[C@H](C)[C@H](OC)c2coc(n2)-c2coc(n2)-c2coc(n2)/C=C/C[C@H](OC)[C@H]1C)OC` showed an IC50 in assay [4] of 7 nM. Regarding `C/C1=C/C(=O)O[C@@H]2C[C@@H](CC[C@H](C)/C=C\C=C\CC1)O[C@@](O)([C@@H]1CSC(=O)N1)C2`, the outcome in assay [5] was Active. Take `CO[C@@H]([C@@H](C)[C@@H](CC[C@H](C)[C@H](C[C@@H]1OC(=O)C[C@@H](O)C/C=C/C(=O)[C@H](C)[C@H](OC)c2coc(n2)-c2coc(n2)-c2coc(n2)/C=C/C[C@H](OC)[C@H]1C)OC)OC(=O)[C@@H](C)OC)[C@H](C)/C=C/N(C)C=O`: in assay [6], the result was Active. In assay [4], half-maximal inhibition (IC50) was put at 7 nM.
